Laboratory results taken from publication PMC10653547, “Synergistic effect of two antimicrobial peptides, BP203 and MAP-0403 J-2 with conventional antibiotics against colistin-resistant Escherichia coli and Klebsiella pneumoniae clinical isolates” (PLOS ONE, 2023).

Tests used:
[1] = tested on: colistin-resistant E. coli clinical isolates; assay: Disk diffusion antimicrobial susceptibility testing (CLSI); format: cell-based, Escherichia coli; details: for %Resistance: ten E. coli isolates, disk diffusion
Protocol: (§1) Ten non-duplicate clinical isolates of colistin-resistant E. coli (EC) and ten non-duplicate clinical isolates of colistin-resistant K. pneumoniae (KP) were obtained from the bacterial repository of the Division of Infectious Diseases and Tropical Medicine, Department of Medicine, Faculty of Medicine Siriraj Hospital, Mahidol University. The species identification was conducted through standard biochemical tests. Antimicrobial susceptibility testing was carried out using the disk diffusion method following CLSI guidelines. Additionally, the assessment of colistin resistance in all isolates was performed by broth microdilution following CLSI recommendations. […] The amino acid sequences of BP203 and MAP-0403 J-2 were retrieved from previous studies. These peptides are BP100 and MAP-0403 analogs, respectively. […] Antibiotic disks and defibrinated sheep blood were obtained from Oxoid (Basingstoke, UK). All culture media were purchased from Becton Dickinson (Frankin Lakes, NJ, USA). All chemicals were obtained from Sigma-Aldrich (St. Louis, MO, USA).

[2] = tested on: colistin-resistant K. pneumoniae clinical isolates; assay: as above; format: cell-based, Klebsiella pneumoniae; details: for %Resistance: ten K. pneumoniae isolates, disk diffusion
Protocol: as §1

[3] = tested on: colistin-resistant E. coli clinical isolates; assay: Checkerboard assay for synergy testing; format: cell-based, Escherichia coli
Protocol: (§2) The synergistic activities of various two-antimicrobial combinations against colistin-resistant E. coli and K. pneumoniae isolates were evaluated using the checkerboard assay, which was performed in 96-well plates. […] Two-fold serial dilutions of peptides and antibiotics were independently prepared in CAMHB. Afterward, a mixture of different concentrations of the antibiotics and peptides was added to the wells of the microplates. Antibiotics and peptides were also dispended alone in the first row and the first column, respectively. Bacterial inoculum was added to the 96-well plate to achieve a final concentration of 5 × 10^5 CFU/mL. Then, plates were incubated at 37 °C for 20–24 h. MICs were recorded as the minimum concentration of antimicrobial agents without bacterial growth. The interaction between the antimicrobials was determined by calculating the fractional inhibitory concentration index (FICI) according to the formula: FICI = FIC(drug A) + FIC(drug B), where FIC = the MIC of the drug when in the combination/MIC of drug tested individually.

[4] = tested on: colistin-resistant K. pneumoniae clinical isolates; assay: Checkerboard assay for synergy testing; format: cell-based, Klebsiella pneumoniae
Protocol: as §2

[5] = isolate EC-01, checkerboard Rifampicin+BP203
[6] = isolate EC-01, checkerboard Rifampicin+MAP-0403 J-2
[7] = isolate EC-02, checkerboard Rifampicin+BP203
[8] = isolate EC-02, checkerboard Rifampicin+MAP-0403 J-2
[9] = isolate EC-03, checkerboard Rifampicin+BP203
[10] = isolate EC-03, checkerboard Rifampicin+MAP-0403 J-2
[11] = isolate EC-04, checkerboard Rifampicin+BP203
[12] = isolate EC-04, checkerboard Rifampicin+MAP-0403 J-2
[13] = isolate EC-05, checkerboard Rifampicin+BP203
[14] = isolate EC-05, checkerboard Rifampicin+MAP-0403 J-2
[15] = isolate EC-06, checkerboard Rifampicin+BP203
[16] = isolate EC-06, checkerboard Rifampicin+MAP-0403 J-2
[17] = isolate EC-07, checkerboard Rifampicin+BP203
[18] = isolate EC-07, checkerboard Rifampicin+MAP-0403 J-2
[19] = isolate EC-08, checkerboard Rifampicin+BP203
[20] = isolate EC-08, checkerboard Rifampicin+MAP-0403 J-2
[21] = isolate EC-09, checkerboard Rifampicin+BP203
[22] = isolate EC-09, checkerboard Rifampicin+MAP-0403 J-2
[23] = isolate EC-10, checkerboard Rifampicin+BP203
[24] = isolate EC-10, checkerboard Rifampicin+MAP-0403 J-2
[25] = isolate KP-01, checkerboard Rifampicin+BP203
[26] = isolate KP-01, checkerboard Rifampicin+MAP-0403 J-2
[27] = isolate KP-02, checkerboard Rifampicin+BP203
[28] = isolate KP-02, checkerboard Rifampicin+MAP-0403 J-2
[29] = isolate KP-03, checkerboard Rifampicin+BP203
[30] = isolate KP-03, checkerboard Rifampicin+MAP-0403 J-2
[31] = isolate KP-04, checkerboard Rifampicin+BP203
[32] = isolate KP-04, checkerboard Rifampicin+MAP-0403 J-2
[33] = isolate KP-05, checkerboard Rifampicin+BP203
[34] = isolate KP-05, checkerboard Rifampicin+MAP-0403 J-2
[35] = isolate KP-06, checkerboard Rifampicin+BP203
[36] = isolate KP-06, checkerboard Rifampicin+MAP-0403 J-2
[37] = isolate KP-07, checkerboard Rifampicin+BP203
[38] = isolate KP-07, checkerboard Rifampicin+MAP-0403 J-2
[39] = isolate KP-08, checkerboard Rifampicin+BP203
[40] = isolate KP-08, checkerboard Rifampicin+MAP-0403 J-2
[41] = isolate KP-09, checkerboard Rifampicin+BP203
[42] = isolate KP-09, checkerboard Rifampicin+MAP-0403 J-2
[43] = isolate KP-10, checkerboard Rifampicin+BP203
[44] = isolate KP-10, checkerboard Rifampicin+MAP-0403 J-2

Compound: NCC[C@H](O)C(=O)N[C@@H]1C[C@H](N)[C@@H](O[C@H]2O[C@H](CN)[C@@H](O)[C@H](O)[C@H]2O)[C@H](O)[C@H]1O[C@H]1O[C@H](CO)[C@@H](O)[C@H](N)[C@H]1O [AK, amikacin]
- Interpreted results of disk diffusion ([1]; EC-01): S
- Interpreted results of disk diffusion ([1]; EC-02): S
- Interpreted results of disk diffusion ([1]; EC-03): S
- Interpreted results of disk diffusion ([1]; EC-04): S
- Interpreted results of disk diffusion ([1]; EC-05): S
- Interpreted results of disk diffusion ([1]; EC-06): S
- Interpreted results of disk diffusion ([1]; EC-07): S
- Interpreted results of disk diffusion ([1]; EC-08): S
- Interpreted results of disk diffusion ([1]; EC-09): S
- Interpreted results of disk diffusion ([1]; EC-10): S
- %Resistance [1]: 0%
- Interpreted results of disk diffusion ([2]; KP-01): S
- Interpreted results of disk diffusion ([2]; KP-02): R
- Interpreted results of disk diffusion ([2]; KP-03): R
- Interpreted results of disk diffusion ([2]; KP-04): R
- Interpreted results of disk diffusion ([2]; KP-05): I
- Interpreted results of disk diffusion ([2]; KP-06): R
- Interpreted results of disk diffusion ([2]; KP-07): S
- Interpreted results of disk diffusion ([2]; KP-08): S
- Interpreted results of disk diffusion ([2]; KP-09): S
- Interpreted results of disk diffusion ([2]; KP-10): S
- %Resistance [2]: 40%

Compound: C[C@H]1[C@H](NC(=O)/C(=N\OC(C)(C)C(=O)O)c2csc(N)n2)C(=O)N1S(=O)(=O)O [ATM, aztreonam]
- Interpreted results of disk diffusion ([1]; EC-01): R
- Interpreted results of disk diffusion ([1]; EC-02): R
- Interpreted results of disk diffusion ([1]; EC-03): R
- Interpreted results of disk diffusion ([1]; EC-04): R
- Interpreted results of disk diffusion ([1]; EC-05): S
- Interpreted results of disk diffusion ([1]; EC-06): I
- Interpreted results of disk diffusion ([1]; EC-07): R
- Interpreted results of disk diffusion ([1]; EC-08): S
- Interpreted results of disk diffusion ([1]; EC-09): R
- Interpreted results of disk diffusion ([1]; EC-10): R
- %Resistance [1]: 70%
- %Resistance [2]: 100%

Compound: CO/N=C(\C(=O)N[C@@H]1C(=O)N2C(C(=O)O)=C(CSc3nc(=O)c(=O)[nH]n3C)CS[C@H]12)c1csc(N)n1 [CRO, ceftriaxone]
- Interpreted results of disk diffusion ([1]; EC-01): R
- Interpreted results of disk diffusion ([1]; EC-02): R
- Interpreted results of disk diffusion ([1]; EC-03): R
- Interpreted results of disk diffusion ([1]; EC-04): R
- Interpreted results of disk diffusion ([1]; EC-05): R
- Interpreted results of disk diffusion ([1]; EC-06): R
- Interpreted results of disk diffusion ([1]; EC-07): R
- Interpreted results of disk diffusion ([1]; EC-08): R
- Interpreted results of disk diffusion ([1]; EC-09): R
- Interpreted results of disk diffusion ([1]; EC-10): R
- %Resistance [1]: 100%
- Interpreted results of disk diffusion ([2]; KP-01): R
- Interpreted results of disk diffusion ([2]; KP-02): R
- Interpreted results of disk diffusion ([2]; KP-03): R
- Interpreted results of disk diffusion ([2]; KP-04): R
- Interpreted results of disk diffusion ([2]; KP-05): R
- Interpreted results of disk diffusion ([2]; KP-06): R
- Interpreted results of disk diffusion ([2]; KP-07): R
- Interpreted results of disk diffusion ([2]; KP-08): R
- Interpreted results of disk diffusion ([2]; KP-09): R
- Interpreted results of disk diffusion ([2]; KP-10): R
- %Resistance [2]: 100%

Compound: CO[C@H]1/C=C/O[C@@]2(C)Oc3c(C)c(O)c4c(O)c(c(/C=N/N5CCN(C)CC5)c(O)c4c3C2=O)NC(=O)/C(C)=C\C=C\[C@H](C)[C@H](O)[C@@H](C)[C@@H](O)[C@@H](C)[C@H](OC(C)=O)[C@@H]1C [RIF, rifampicin]
- MIC alone [3, 5]: 2 µg/mL
- MIC combination [3, 5]: 1 µg/mL
- MIC alone [3, 6]: 4 µg/mL
- MIC combination [3, 6]: 0.5 µg/mL
- MIC alone [3, 7]: 4 µg/mL
- MIC combination [3, 7]: 0.25 µg/mL
- MIC alone [3, 8]: 8 µg/mL
- MIC combination [3, 8]: 2 µg/mL
- MIC alone [3, 9]: 4 µg/mL
- MIC combination [3, 9]: 1 µg/mL
- MIC alone [3, 10]: 8 µg/mL
- MIC combination [3, 10]: 0.25 µg/mL
- MIC alone [3, 11]: 4 µg/mL
- MIC combination [3, 11]: 1 µg/mL
- MIC alone [3, 12]: 16 µg/mL
- MIC combination [3, 12]: 4 µg/mL
- MIC alone [3, 13]: 2 µg/mL
- MIC combination [3, 13]: 0.5 µg/mL
- MIC alone [3, 14]: 8 µg/mL
- MIC combination [3, 14]: 2 µg/mL
- MIC alone [3, 15]: 4 µg/mL
- MIC combination [3, 15]: 1 µg/mL
- MIC alone [3, 16]: 8 µg/mL
- MIC combination [3, 16]: 1 µg/mL
- MIC alone [3, 17]: 4 µg/mL
- MIC combination [3, 17]: 1 µg/mL
- MIC alone [3, 18]: 16 µg/mL
- MIC combination [3, 18]: 4 µg/mL
- MIC alone [3, 19]: 2 µg/mL
- MIC combination [3, 19]: 0.5 µg/mL
- MIC alone [3, 20]: 8 µg/mL
- MIC combination [3, 20]: 0.25 µg/mL
- MIC alone [3, 21]: 4 µg/mL
- MIC combination [3, 21]: 2 µg/mL
- MIC alone [3, 22]: 8 µg/mL
- MIC combination [3, 22]: 0.5 µg/mL
- MIC alone [3, 23]: 2 µg/mL
- MIC combination [3, 23]: 0.5 µg/mL
- MIC alone [3, 24]: 8 µg/mL
- MIC combination [3, 24]: 0.5 µg/mL
- MIC alone [4, 25]: 512 µg/mL
- MIC combination [4, 25]: 16 µg/mL
- MIC alone [4, 26]: 256 µg/mL
- MIC combination [4, 26]: 16 µg/mL
- MIC alone [4, 27]: 512 µg/mL
- MIC combination [4, 27]: 4 µg/mL
- MIC alone [4, 28]: 256 µg/mL
- MIC combination [4, 28]: 16 µg/mL
- MIC alone [4, 29]: 32 µg/mL
- MIC combination [4, 29]: 4 µg/mL
- MIC alone [4, 30]: 32 µg/mL
- MIC combination [4, 30]: 2 µg/mL
- MIC alone [4, 31]: 128 µg/mL
- MIC combination [4, 31]: 4 µg/mL
- MIC alone [4, 32]: 256 µg/mL
- MIC combination [4, 32]: 32 µg/mL
- MIC alone [4, 33]: 16 µg/mL
- MIC combination [4, 33]: 1 µg/mL
- MIC alone [4, 34]: 16 µg/mL
- MIC combination [4, 34]: 1 µg/mL
- MIC alone [4, 35]: 512 µg/mL
- MIC combination [4, 35]: 8 µg/mL
- MIC alone [4, 36]: 256 µg/mL
- MIC combination [4, 36]: 32 µg/mL
- MIC alone [4, 37]: 32 µg/mL
- MIC combination [4, 37]: 4 µg/mL
- MIC alone [4, 38]: 32 µg/mL
- MIC combination [4, 38]: 2 µg/mL
- MIC alone [4, 39]: 16 µg/mL
- MIC combination [4, 39]: 4 µg/mL
- MIC alone [4, 40]: 16 µg/mL
- MIC combination [4, 40]: 2 µg/mL
- MIC alone [4, 41]: 512 µg/mL
- MIC combination [4, 41]: 32 µg/mL
- MIC alone [4, 42]: 256 µg/mL
- MIC combination [4, 42]: 128 µg/mL
- MIC alone [4, 43]: 32 µg/mL
- MIC combination [4, 43]: 4 µg/mL
- MIC alone [4, 44]: 32 µg/mL
- MIC combination [4, 44]: 2 µg/mL
